Legend:
Assay type in all cases: binding
HLA A*3001 = HLA A*3001 (Homo sapiens, UniProt P04439, D140H/D185E/E176W/F33S/G80R/H175R/K168Q/R138E/R41S); assay: biochemical
HLA A*3201 = HLA A*3201 (Homo sapiens, UniProt P04439, A270S/D101S/D185E/E176V/E277Q/F133L/G103R/G107R/G231S/H175R/I121M/I218V/I322F/K168Q/L105A/L300P/L318F/M331R/P208A/P217A/Q94H/R106L/R138Q/S129P/T104I/T323A/T345S/V100E/V321M/V358M); assay: biochemical
HLA A*6802 = HLA A*6802 (Homo sapiens, UniProt P04439, A269V/D140Y/D185E/E176V/E277Q/E87N/F33Y/G231S/I121R/I166T/I218V/L180W/L300P/L318F/N151K/P208A/P217A/Q86R/R138H/R169H/S129P/T345S/V36M)
HLA B*0801 = HLA B*0801 (Homo sapiens, UniProt P01889, A93T/A95T/D138N/E176V/E187T/K202T/Q94N/R180D/S35A/V36M/Y33D/Y91F); assay: biochemical
HLA B*1501 = HLA B*1501 (Homo sapiens, UniProt P01889, A329T/A93T/A95T/C349S/D201E/D98Y/E187L/E204Q/E69M/E70A/K202T/N87E/Q94N/R155S/R180W/S121R/S35A/S48A/V306I/V36M/Y140S/Y91S); assay: biochemical
HLA B*1503 = HLA B*1503 (Homo sapiens, UniProt P01889, A329T/A93T/A95T/C349S/D201E/D98Y/E187L/E204Q/K202T/N87E/Q94N/R155S/R180L/S121R/S35A/V306I/V36M/Y140S/Y91S); assay: biochemical
HLA B*3501 = HLA B*3501 (Homo sapiens, UniProt P01889, A329T/A93T/A95T/C349S/D201E/D98Y/E176V/E187L/E204Q/E69T/I218V/K202T/L119I/Q94N/R155S/R180L/S121R/S35A/S48A/T118I/V127L/V306I/V36M/Y140S/Y91F)
HLA B*5101 = HLA B*5101 (Homo sapiens, UniProt P01889, A329T/A93T/A95T/C349S/D138N/D201E/D98Y/E187L/E204Q/E69T/G107R/I218V/K202T/L105A/L119W/N104I/Q94N/R106L/R155S/R180L/S101N/S121T/S35A/S48A/V306I/V36M/Y195H/Y91F)
HLA B*5301 = HLA B*5301 (Homo sapiens, UniProt P01889, A329T/A93T/A95T/C349S/D201E/D98Y/E176V/E187L/E204Q/E69T/G107R/I218V/K202T/L105A/L119I/N104I/Q94N/R106L/R155S/R180L/S101N/S121R/S35A/S48A/T118I/V127L/V306I/V36M/Y140S/Y91F)
HLA B*5401 = HLA B*5401 (Homo sapiens, UniProt P01889, A329T/C349S/D138N/D201E/E176V/E187T/E204Q/E69G/I76V/K202T/L119W/R155S/R180L/S121T/S35A/S48A/V127L/V306I/V36M/Y140L)
HLA B*5801 = HLA B*5801 (Homo sapiens, UniProt P01889, A329T/C349S/D201E/D98Y/E176V/E187L/E204Q/E69T/G107R/I218V/I90N/K202T/L105A/L119I/N104I/N87E/Q89R/Q94S/R106L/R155S/R180L/R86G/S101N/S121R/S35A/S48A/T118I/V127L/V306I/V36M/Y140S/Y91M)
HLA B*5802 = HLA B*5802 (Homo sapiens, UniProt P01889, A329T/C349S/D201E/D98Y/E176V/E187L/E204Q/E69T/G107R/I218V/I90N/K202T/L105A/N104I/N87E/Q89R/Q94S/R106L/R155S/R180L/R86G/S101N/S121W/S35A/S48A/V127L/V306I/V36M/Y140S/Y91M)
H-2 D^b = H-2 D^b (Mus musculus, UniProt P01899)
H-2 D^b, sequence (P01887 21-119): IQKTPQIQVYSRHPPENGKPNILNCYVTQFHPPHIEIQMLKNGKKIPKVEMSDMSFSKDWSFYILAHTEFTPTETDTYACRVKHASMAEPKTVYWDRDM
H-2 D^b, sequence (P01899 25-362): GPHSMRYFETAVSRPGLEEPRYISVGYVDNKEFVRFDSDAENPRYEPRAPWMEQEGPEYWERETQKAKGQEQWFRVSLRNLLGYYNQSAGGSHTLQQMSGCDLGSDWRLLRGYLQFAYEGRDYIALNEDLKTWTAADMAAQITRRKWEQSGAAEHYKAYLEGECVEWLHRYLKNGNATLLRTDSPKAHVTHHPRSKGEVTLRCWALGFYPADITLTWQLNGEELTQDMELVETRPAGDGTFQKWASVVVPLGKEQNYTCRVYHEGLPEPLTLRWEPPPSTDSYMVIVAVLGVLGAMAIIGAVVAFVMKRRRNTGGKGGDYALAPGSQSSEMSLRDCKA

H-2 D^d = H-2 D^d (Mus musculus, UniProt P01900)
H-2 D^d, sequence (P01900 whole entry, looked up): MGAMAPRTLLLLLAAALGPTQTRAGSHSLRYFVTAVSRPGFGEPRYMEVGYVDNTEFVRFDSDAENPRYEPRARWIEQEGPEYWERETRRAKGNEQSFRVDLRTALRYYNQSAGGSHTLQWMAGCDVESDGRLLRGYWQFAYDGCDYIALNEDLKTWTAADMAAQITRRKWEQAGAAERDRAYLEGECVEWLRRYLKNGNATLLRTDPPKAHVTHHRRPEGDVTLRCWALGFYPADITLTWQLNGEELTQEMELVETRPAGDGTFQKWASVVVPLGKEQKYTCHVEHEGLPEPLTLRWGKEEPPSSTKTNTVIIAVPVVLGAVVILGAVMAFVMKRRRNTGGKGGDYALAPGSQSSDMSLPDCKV

H-2 K^d = H-2 K^d (Mus musculus, UniProt P01902)
H-2 K^d, sequence (P01887 21-119): as the sequence (P01887 21-119) above
H-2 K^d, sequence (P01902 22-368): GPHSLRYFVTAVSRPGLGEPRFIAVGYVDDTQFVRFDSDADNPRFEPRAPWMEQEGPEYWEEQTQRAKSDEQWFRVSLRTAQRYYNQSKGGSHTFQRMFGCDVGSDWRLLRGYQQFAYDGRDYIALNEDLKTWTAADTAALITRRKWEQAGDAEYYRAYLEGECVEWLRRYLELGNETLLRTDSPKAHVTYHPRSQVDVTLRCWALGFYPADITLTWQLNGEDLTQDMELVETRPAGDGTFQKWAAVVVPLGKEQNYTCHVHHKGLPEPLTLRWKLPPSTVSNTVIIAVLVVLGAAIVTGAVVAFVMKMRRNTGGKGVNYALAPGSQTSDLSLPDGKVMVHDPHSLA

H-2 K^k = H-2 K^k (Mus musculus, UniProt P04223)
H-2 K^k, sequence (P01887 21-119): as the sequence (P01887 21-119) above
H-2 K^k, sequence (P04223 22-369): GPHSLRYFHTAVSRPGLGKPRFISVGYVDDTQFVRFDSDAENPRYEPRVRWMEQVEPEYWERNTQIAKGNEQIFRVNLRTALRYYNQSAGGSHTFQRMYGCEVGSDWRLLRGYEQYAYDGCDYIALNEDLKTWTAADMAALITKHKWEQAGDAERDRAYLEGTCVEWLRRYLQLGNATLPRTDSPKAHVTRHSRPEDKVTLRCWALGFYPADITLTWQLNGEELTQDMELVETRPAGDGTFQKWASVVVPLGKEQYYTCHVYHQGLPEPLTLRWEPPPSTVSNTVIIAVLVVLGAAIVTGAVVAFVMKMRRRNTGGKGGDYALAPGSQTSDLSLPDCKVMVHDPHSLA

Sequence	Normalized average relative binding affinity(ARB) (HLA A*3001)	Normalized average relative binding affinity(ARB) (HLA A*3201)	Normalized average relative binding affinity(ARB) (HLA A*6802)	Normalized average relative binding affinity(ARB) (HLA B*0801)	Normalized average relative binding affinity(ARB) (HLA B*1501)	Normalized average relative binding affinity(ARB) (HLA B*1503)	Normalized average relative binding affinity(ARB) (HLA B*3501)	Normalized average relative binding affinity(ARB) (HLA B*5101)	Normalized average relative binding affinity(ARB) (HLA B*5301)	Normalized average relative binding affinity(ARB) (HLA B*5401)	Normalized average relative binding affinity(ARB) (HLA B*5801)	Normalized average relative binding affinity(ARB) (HLA B*5802)	Normalized average relative binding affinity(ARB) (H-2 D^b)	Normalized average relative binding affinity(ARB) (H-2 D^d)	Normalized average relative binding affinity(ARB) (H-2 K^d)	Normalized average relative binding affinity(ARB) (H-2 K^k)
XXXXNXXXX [3064.0092]	0.12	0.16	0.30	0.037	0.56	0.26	1.0	0.40	0.17	0.34	0.13	0.31	1.0	0.19	0.21	0.090
XXXXPXXXX [3064.0093]	0.53	0.16	0.16	0.011	0.89	0.46	0.37	0.50	0.14	0.51	0.19	0.075	0.038	0.023	0.094	0.072
XXXXQXXXX [3064.0094]	0.20	0.38	0.077	0.037	1.0	0.20	0.28	0.29	0.12	0.40	0.19	0.063	0.023	0.15	0.15	0.099
XXXXRXXXX [3064.0095]	0.80	0.27	0.19	1.0	0.64	0.28	0.23	0.49	0.11	0.21	0.15	0.20	0.020	1.0	0.023	0.072
XXXXSXXXX [3064.0096]	1.0	0.20	0.34	0.065	0.71	0.47	0.27	0.35	0.16	0.18	0.31	0.063	0.079	0.21	1.0	0.18
XXXXTXXXX [3064.0097]	0.18	0.062	0.044	0.011	0.62	0.43	0.21	0.51	0.11	0.085	0.33	0.16	0.018	0.18	0.42	0.16
XXXXVXXXX [3064.0098]	0.35	0.47	0.51	0.019	0.56	0.24	0.22	0.36	0.18	0.042	1.0	0.87	0.021	0.25	0.24	0.18
XXXXWXXXX [3064.0099]	0.16	0.65	0.26	0.023	0.49	0.44	0.29	0.19	0.074	0.14	0.30	1.0	0.013	0.098	0.21	1.0

— publication PMC2248166, “Quantitative peptide binding motifs for 19 human and mouse MHC class I molecules derived using positional scanning combinatorial peptide libraries” (Immunome Research, 2008)
